According to PubChem BioAssay (NCI):
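Dose response: 5 concentrations. Exposure: 48 h. Format: 96-well plates. Endpoint: linear interpolation; highest concentration if not reached. At the TGI there is no net growth.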

Assays:
Assay in all cases: NCI anticancer screen, dose series, 48 h
U251 CNS = tested on: U251 CNS
NCI/ADR-RES ovarian = tested on: NCI/ADR-RES ovarian
SNB-75 CNS = tested on: SNB-75 CNS
SF-539 CNS = tested on: SF-539 CNS
IGROV1 ovarian = tested on: IGROV1 ovarian
HOP-62 NSCLC = tested on: HOP-62 NSCLC
UACC-62 melanoma = tested on: UACC-62 melanoma
CCRF-CEM leukemia = tested on: CCRF-CEM leukemia
SK-OV-3 ovarian = tested on: SK-OV-3 ovarian
MALME-3M melanoma = tested on: MALME-3M melanoma
MDA-N = tested on: MDA-N
A498 renal = tested on: A498 renal
OVCAR-4 ovarian = tested on: OVCAR-4 ovarian
CAKI-1 renal = tested on: CAKI-1 renal
EKVX NSCLC = tested on: EKVX NSCLC
SN12C renal = tested on: SN12C renal
PC-3 prostate = tested on: PC-3 prostate
HCT-15 colon = tested on: HCT-15 colon
DU-145 prostate = tested on: DU-145 prostate
SK-MEL-2 melanoma = tested on: SK-MEL-2 melanoma

Compound | TGI (U251 CNS) [µM] | TGI (NCI/ADR-RES ovarian) [µM] | TGI (SNB-75 CNS) [µM] | TGI (SF-539 CNS) [µM] | TGI (IGROV1 ovarian) [µM] | TGI (HOP-62 NSCLC) [µM] | TGI (UACC-62 melanoma) [µM] | TGI (CCRF-CEM leukemia) [µM] | TGI (SK-OV-3 ovarian) [µM] | TGI (MALME-3M melanoma) [µM] | TGI (MDA-N) [µM] | TGI (A498 renal) [µM] | TGI (OVCAR-4 ovarian) [µM] | TGI (CAKI-1 renal) [µM] | TGI (EKVX NSCLC) [µM] | TGI (SN12C renal) [µM] | TGI (PC-3 prostate) [µM] | TGI (HCT-15 colon) [µM] | TGI (DU-145 prostate) [µM] | TGI (SK-MEL-2 melanoma) [µM]
O=C1C=CC(=O)c2c(O)c(NCCN3CCOCC3)c(Cl)c(O)c21 | 6.97 | 4.88 | 3.27 | 3.33 | 3.72 | 3.72 | 3.03 | 4.46 | > 10 | 3.31 | 5.33 | > 10 | 3.22 | 3.25 | > 10 | 3.23 | 7.15 | 3.87 | 3.12 | 
COc1ccc2[nH]c3c(c2c1)CCc1c(OC)cccc1-3 | > 100 | > 100 | > 100 |  | > 100 | > 100 | > 100 | > 100 | > 100 | > 100 | > 100 | > 100 | > 100 | > 100 | > 100 | > 100 | > 100 | > 100 | > 100 | > 100
O=C(O)CN1CCN2CCCCCCCCN(CC1)CCN(CC(=O)O)CC2 | > 100 | > 100 | > 100 | > 100 | > 100 | > 100 | > 100 | > 100 | > 100 | > 100 | > 100 | > 100 | > 100 | > 100 | > 100 | > 100 | > 100 | > 100 | > 100 | > 100
Cc1ccc(N2C=Nn3c(nc4sc5c(c4c3=O)CCCC5)C2)cc1 | > 100 | > 100 | > 100 |  | > 100 | 69.2 | > 100 | > 100 | > 100 | > 100 | > 100 | > 100 | > 100 | > 100 | > 100 | > 100 | > 100 | > 100 | > 100 | > 100
Cc1cc(-c2nc3ccc(F)cc3s2)ccc1NC(=O)C(N)CCCCN (stereo unspecified) | 5.01 | 34.1 | 12.6 | 7.75 | 17.6 | 12.7 | 24.6 | 7.68 | 27.1 | 34.1 | 5 | 24 | 24.6 | 24.9 | 26.5 | 21.3 | 22.7 | 23.6 | 26.2 | 23.1
CCCCCCCCCCCCCC(=O)OCC(CCS(=O)(=O)O[C@H]1CC[C@@]2(C)C(=CC[C@@H]3C2CC[C@]2(C)C(=O)CCC32)C1)OC(=O)CCCCCCCCCCCCC (stereo partly specified) | > 100 | > 100 | > 100 | > 100 | > 100 | > 100 | > 100 | > 100 | > 100 | > 100 | > 100 | > 100 | > 100 | > 100 | > 100 | > 100 | > 100 | > 100 | > 100 | > 100
C[C@H](CCC(=O)O)[C@H]1CC[C@H]2[C@@H]3[C@H](O)[C@H](O)[C@@H]4C[C@H](O)CC[C@]4(C)[C@H]3CC[C@]12C | > 100 | > 100 | > 100 | > 100 | > 100 | > 100 | > 100 | > 100 |  | > 100 | > 100 | > 100 | > 100 | > 100 | > 100 | > 100 | > 100 | > 100 | > 100 | > 100
CCN(CC)CCOCCOCC1(c2ccc(Cl)c(Cl)c2)CCCCC1 | 21.5 | 24.3 | 20.4 | 24.8 | 23.8 | 22 | 22.1 | 14.7 | 24.5 | 13.3 | 13.8 | 27.6 | 26.2 | 22.9 | 23 | 24.9 | 23.3 | 15.3 | 22.1 | 28.6
NS(=O)(=O)c1ccc(N=Nc2ccc(O)cc2)cc1 | > 100 | > 100 | 88.9 | > 100 | > 100 | > 100 |  | > 100 | > 100 | > 100 | > 100 | > 100 | > 100 | > 100 | > 100 | > 100 | > 100 | > 100 | > 100 | > 100
COC(=O)c1ccc(Oc2nc3ccc(C(F)(F)F)cc3nc2-c2ccccc2)cc1 | > 100 | > 100 | > 100 | > 100 | > 100 | > 100 | > 100 | > 100 | > 100 | > 100 | > 100 | > 100 | > 100 | > 100 | > 100 | > 100 | > 100 | > 100 | > 100 | 
C[n+]1c2ccccc2n2c3ccccc3c(NCc3ccco3)c(C#N)c21 | 13 | 9.55 | 6.86 | 8.79 |  | 11.4 | 11.7 |  | 39.8 | 7.59 | 10.9 | 20.4 | 10.7 | 7.36 | 13.6 | 9.82 | 22.7 | 4.34 | > 22.1 | 6.51
CCOC(=O)C(=CNc1ccc(S(N)(=O)=O)cc1)C(=O)OCC | > 100 | > 100 | > 100 | > 100 | > 100 | > 100 |  | > 100 | > 100 | > 100 | > 100 | > 100 | > 100 | > 100 | > 100 | > 100 | > 100 | > 100 | > 100 | > 100
